Test results taken from paper doi:10.1101/2023.11.24.568596v1 (biorxiv, 2023).

Assays:
Details in all cases: binder
PIM1 = PIM1 (Homo sapiens, UniProt P11309)
DAPK1 = DAPK1 (Homo sapiens, UniProt P53355)
Erk3 = Erk3 (Homo sapiens, UniProt Q16659)
PIM3 = PIM3 (Homo sapiens, UniProt Q86V86)
JNK3 = JNK3 (Homo sapiens, UniProt P53779)
LOK = LOK (Homo sapiens, UniProt O94804)
BRPF1 = target: T1, BRPF1 (Homo sapiens, UniProt P55201)
T1 sequence (P55201 1-1214): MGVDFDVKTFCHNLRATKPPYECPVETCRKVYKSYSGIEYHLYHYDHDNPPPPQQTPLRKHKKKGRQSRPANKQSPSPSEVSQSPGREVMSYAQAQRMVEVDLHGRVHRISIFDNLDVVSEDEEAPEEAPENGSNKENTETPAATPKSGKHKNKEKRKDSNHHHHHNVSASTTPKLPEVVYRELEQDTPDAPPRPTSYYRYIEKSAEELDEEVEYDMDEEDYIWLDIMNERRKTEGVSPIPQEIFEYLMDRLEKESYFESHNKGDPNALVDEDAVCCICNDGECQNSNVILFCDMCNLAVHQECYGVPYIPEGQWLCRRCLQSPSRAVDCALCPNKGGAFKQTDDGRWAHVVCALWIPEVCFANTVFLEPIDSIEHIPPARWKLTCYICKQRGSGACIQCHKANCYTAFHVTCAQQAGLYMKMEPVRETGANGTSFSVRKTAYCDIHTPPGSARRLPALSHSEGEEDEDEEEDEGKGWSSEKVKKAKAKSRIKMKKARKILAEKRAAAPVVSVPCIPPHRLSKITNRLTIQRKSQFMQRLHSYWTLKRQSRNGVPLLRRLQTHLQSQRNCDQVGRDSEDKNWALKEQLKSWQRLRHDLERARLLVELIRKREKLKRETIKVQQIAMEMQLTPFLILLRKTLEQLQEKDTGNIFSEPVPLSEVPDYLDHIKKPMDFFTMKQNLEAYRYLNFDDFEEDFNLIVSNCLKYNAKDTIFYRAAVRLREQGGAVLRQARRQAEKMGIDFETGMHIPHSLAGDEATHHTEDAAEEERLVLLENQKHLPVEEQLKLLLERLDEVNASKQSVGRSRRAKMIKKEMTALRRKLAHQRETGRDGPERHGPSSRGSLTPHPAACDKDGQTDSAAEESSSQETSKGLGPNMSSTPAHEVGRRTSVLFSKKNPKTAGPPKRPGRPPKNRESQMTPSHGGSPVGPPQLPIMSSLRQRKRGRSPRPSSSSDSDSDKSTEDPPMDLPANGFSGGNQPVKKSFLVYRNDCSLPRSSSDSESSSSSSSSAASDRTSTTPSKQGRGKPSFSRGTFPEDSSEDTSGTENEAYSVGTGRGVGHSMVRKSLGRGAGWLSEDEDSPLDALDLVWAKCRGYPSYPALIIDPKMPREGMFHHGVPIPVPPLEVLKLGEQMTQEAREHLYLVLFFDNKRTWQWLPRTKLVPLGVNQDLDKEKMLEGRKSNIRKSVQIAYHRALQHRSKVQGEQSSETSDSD

NEK2 = target: T2, NEK2 (Homo sapiens, UniProt P51955)
T2 sequence (P51955 1-445): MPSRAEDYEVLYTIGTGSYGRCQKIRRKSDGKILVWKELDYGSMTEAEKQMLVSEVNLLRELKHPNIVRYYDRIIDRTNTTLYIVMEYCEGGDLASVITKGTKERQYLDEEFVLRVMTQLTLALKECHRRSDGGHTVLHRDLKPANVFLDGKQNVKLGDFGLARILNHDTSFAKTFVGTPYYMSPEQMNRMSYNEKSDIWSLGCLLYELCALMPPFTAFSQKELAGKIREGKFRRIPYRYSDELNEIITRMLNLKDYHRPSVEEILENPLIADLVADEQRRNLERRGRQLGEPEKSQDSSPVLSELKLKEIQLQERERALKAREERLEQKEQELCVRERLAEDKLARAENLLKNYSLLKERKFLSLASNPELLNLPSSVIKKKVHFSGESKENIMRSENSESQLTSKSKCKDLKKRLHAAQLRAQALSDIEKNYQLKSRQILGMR

AurA = target: T3, AurA (Homo sapiens, UniProt O14965)
T3 sequence (O14965 1-403): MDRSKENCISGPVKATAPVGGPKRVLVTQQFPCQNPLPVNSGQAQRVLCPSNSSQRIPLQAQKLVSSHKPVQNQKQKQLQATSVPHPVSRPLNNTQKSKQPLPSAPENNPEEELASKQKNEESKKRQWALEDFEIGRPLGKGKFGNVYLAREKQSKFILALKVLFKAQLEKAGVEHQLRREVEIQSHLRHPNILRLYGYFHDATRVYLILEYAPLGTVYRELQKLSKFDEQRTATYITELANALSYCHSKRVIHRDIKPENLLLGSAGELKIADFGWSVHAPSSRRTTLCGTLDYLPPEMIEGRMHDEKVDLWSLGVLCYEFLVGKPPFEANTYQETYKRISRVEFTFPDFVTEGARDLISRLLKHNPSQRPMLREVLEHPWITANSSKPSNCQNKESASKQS

PAK4 = PAK4 (Homo sapiens, UniProt O96013)
Sequence of PAK4 (O96013 whole entry): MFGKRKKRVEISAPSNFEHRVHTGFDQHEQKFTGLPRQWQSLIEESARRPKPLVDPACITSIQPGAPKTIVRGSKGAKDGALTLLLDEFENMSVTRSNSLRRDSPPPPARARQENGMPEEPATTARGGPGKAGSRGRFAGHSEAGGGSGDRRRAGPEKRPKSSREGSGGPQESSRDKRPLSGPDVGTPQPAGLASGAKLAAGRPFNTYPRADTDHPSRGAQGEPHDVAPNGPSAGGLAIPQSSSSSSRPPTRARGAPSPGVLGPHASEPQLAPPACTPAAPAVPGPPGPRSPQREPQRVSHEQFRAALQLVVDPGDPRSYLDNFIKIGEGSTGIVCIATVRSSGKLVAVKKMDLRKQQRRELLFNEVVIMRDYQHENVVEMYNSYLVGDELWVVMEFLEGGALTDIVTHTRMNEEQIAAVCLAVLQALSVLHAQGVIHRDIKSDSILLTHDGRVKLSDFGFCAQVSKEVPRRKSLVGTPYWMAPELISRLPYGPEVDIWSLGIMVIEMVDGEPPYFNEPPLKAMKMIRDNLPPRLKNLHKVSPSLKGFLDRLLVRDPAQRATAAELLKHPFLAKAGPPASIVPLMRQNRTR

Sequence of Erk3 (Q16659 whole entry): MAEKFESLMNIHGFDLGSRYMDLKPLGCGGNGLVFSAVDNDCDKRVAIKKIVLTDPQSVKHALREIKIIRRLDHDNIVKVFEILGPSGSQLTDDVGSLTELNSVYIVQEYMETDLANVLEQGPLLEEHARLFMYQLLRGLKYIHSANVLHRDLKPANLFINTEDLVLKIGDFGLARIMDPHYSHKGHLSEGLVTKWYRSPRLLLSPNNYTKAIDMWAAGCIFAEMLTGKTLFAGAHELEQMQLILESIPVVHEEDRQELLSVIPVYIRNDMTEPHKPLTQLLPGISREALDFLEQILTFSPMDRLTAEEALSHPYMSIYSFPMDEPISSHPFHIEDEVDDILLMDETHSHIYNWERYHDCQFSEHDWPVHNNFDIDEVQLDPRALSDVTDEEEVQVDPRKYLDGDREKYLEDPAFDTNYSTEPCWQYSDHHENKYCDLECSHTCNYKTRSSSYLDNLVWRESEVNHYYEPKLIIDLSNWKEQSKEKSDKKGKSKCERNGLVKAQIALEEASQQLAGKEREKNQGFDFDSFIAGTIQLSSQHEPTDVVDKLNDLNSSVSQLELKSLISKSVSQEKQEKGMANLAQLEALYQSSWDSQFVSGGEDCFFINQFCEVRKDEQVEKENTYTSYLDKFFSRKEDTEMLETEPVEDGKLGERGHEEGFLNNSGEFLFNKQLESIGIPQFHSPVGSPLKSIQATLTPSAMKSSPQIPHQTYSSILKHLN
Sequence of PIM1 (P11309 whole entry): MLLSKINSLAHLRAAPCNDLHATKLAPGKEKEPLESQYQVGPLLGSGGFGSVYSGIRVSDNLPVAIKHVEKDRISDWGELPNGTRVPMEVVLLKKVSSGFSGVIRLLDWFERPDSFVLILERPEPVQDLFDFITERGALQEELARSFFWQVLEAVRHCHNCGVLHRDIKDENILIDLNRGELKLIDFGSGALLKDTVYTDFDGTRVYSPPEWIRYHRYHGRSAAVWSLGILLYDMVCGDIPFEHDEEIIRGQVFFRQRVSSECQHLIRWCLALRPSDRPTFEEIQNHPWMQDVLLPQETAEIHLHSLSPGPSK
Sequence of JNK3 (P53779 whole entry): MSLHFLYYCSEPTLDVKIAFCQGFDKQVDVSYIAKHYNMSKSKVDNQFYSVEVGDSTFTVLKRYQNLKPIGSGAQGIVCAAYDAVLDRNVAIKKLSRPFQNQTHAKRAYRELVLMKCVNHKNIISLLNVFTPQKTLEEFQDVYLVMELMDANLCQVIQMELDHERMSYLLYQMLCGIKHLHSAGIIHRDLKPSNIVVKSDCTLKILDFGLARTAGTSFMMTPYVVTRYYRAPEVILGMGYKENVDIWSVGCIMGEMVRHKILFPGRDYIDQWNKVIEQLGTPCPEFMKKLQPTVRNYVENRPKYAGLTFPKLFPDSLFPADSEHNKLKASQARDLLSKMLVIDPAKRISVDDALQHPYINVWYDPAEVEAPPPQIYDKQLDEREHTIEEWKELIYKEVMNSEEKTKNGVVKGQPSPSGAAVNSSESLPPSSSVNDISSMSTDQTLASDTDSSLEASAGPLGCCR
Sequence of LOK (O94804 whole entry): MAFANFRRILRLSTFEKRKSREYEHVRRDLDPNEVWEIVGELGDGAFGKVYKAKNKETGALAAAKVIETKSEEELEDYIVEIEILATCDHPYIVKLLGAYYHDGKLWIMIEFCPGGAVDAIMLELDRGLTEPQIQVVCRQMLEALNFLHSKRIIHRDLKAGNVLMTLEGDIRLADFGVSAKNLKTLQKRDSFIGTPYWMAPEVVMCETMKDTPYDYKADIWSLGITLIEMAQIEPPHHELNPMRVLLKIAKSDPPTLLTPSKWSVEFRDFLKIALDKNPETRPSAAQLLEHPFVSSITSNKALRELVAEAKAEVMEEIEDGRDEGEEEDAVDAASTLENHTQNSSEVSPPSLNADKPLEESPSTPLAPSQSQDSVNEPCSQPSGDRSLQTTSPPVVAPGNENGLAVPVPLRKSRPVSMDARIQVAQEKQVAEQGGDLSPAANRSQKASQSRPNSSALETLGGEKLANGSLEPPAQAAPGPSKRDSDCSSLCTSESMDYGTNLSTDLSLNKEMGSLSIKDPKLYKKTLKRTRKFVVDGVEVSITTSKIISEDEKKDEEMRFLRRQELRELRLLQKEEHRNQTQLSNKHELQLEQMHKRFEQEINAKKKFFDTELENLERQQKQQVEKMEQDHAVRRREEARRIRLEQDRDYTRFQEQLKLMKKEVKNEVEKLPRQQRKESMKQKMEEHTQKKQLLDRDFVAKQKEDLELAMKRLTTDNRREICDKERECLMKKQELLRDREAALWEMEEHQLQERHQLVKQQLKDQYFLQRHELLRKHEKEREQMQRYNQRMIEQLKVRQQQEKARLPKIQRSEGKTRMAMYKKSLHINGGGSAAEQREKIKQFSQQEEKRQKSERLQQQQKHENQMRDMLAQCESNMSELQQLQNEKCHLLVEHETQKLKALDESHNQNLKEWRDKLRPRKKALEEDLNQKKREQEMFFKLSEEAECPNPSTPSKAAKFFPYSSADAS
Sequence of DAPK1 (P53355 whole entry): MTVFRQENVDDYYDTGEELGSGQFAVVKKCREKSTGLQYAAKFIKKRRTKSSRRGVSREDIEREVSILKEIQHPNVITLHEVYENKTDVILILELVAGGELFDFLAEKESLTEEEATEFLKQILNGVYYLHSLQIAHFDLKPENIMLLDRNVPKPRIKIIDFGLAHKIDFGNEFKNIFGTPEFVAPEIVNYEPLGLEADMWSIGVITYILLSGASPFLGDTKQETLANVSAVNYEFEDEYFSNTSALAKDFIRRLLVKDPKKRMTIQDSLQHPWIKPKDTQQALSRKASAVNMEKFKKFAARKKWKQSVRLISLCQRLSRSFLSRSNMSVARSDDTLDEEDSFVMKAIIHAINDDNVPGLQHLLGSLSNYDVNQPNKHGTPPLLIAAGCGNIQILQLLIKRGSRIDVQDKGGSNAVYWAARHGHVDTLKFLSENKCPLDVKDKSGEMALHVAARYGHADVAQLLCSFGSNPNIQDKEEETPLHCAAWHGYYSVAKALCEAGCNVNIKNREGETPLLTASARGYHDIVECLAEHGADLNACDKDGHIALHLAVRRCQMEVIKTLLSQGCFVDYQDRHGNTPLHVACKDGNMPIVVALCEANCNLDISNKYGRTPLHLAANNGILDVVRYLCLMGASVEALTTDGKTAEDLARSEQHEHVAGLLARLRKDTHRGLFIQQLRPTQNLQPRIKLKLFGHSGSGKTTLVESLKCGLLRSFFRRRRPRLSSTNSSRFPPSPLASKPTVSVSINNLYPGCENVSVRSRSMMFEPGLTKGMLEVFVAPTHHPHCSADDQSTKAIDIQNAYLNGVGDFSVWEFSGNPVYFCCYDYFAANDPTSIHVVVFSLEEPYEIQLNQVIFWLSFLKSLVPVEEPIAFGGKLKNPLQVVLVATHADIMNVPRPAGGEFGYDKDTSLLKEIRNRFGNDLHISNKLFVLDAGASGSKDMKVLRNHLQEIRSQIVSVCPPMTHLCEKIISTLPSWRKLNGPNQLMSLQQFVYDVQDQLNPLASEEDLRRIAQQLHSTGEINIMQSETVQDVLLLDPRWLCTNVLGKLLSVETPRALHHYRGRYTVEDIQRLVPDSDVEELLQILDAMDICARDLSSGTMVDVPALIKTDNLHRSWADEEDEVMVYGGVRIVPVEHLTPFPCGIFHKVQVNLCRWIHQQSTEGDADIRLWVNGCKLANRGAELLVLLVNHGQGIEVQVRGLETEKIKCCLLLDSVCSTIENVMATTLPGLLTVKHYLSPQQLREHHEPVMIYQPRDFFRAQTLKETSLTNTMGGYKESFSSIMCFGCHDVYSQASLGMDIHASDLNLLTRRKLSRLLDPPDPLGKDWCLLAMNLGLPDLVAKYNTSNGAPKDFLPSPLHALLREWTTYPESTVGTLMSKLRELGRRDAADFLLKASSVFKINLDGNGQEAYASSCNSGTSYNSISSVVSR

Cc1cccc(-c2ccc(-c3cc4cnc(NCCCN5CCCC5=O)nc4n(CCCCN)c3=O)c(Cl)c2)n1 [compound 27, MR30]
ΔTm MR30 (27) (PIM1): -0.5 °C
ΔTm MR30 (27) (DAPK1): -1.2 °C
ΔTm MR30 (27) (Erk3): 0.5 °C
ΔTm MR30 (27) (PIM3): -2.7 °C
ΔTm MR30 (27) (JNK3): 1.7 °C
ΔTm MR30 (27) (LOK): -0.6 °C
ΔTm MR30 (27) (BRPF1): -1.8 °C
ΔTm MR30 (27) (NEK2): 6.2 °C
ΔTm MR30 (27) (AurA): -0.3 °C
ΔTm MR30 (27) (PAK4): 2.8 °C

Cc1cccc(-c2ccc(-c3cc4cnc(Nc5cc(C(F)(F)F)ccc5C)nc4n(CCCCN)c3=O)c(Cl)c2)n1 [compound 28, 8-(4-Aminobutyl)-6-(2-chloro-4-(6-methylpyridin-2-yl)phenyl)-2-((2-methyl-5-(trifluoromethyl)phenyl)amino)pyrido[2,3-d]pyrimidin-7(8H)-one]
ΔTm 28 (PIM1): 0.5 °C
ΔTm 28 (DAPK1): -0.7 °C
ΔTm 28 (Erk3): 0.7 °C
ΔTm 28 (PIM3): 0.5 °C
ΔTm 28 (JNK3): 3.5 °C
ΔTm 28 (LOK): -0.7 °C
ΔTm 28 (BRPF1): -1.6 °C
ΔTm 28 (NEK2): 7.8 °C
ΔTm 28 (AurA): 6.5 °C
ΔTm 28 (PAK4): 3.5 °C

Cc1cccc(-c2ccc(-c3cc4cnc(NCCCN5CCNCC5)nc4n(CCCCN)c3=O)c(Cl)c2)n1 [compound 29, 8-(4-Aminobutyl)-6-(2-chloro-4-(6-methylpyridin-2-yl)phenyl)-2-((3-(piperazin-1-yl)propyl)amino)pyrido[2,3-d]pyrimidin-7(8H)-one]
ΔTm 29 (PIM1): 0.6 °C
ΔTm 29 (DAPK1): -0.9 °C
ΔTm 29 (Erk3): 0.3 °C
ΔTm 29 (PIM3): 0.0 °C
ΔTm 29 (JNK3): 0.8 °C
ΔTm 29 (LOK): -0.4 °C
ΔTm 29 (BRPF1): -1.2 °C
ΔTm 29 (NEK2): 5.1 °C
ΔTm 29 (AurA): -2.1 °C
ΔTm 29 (PAK4): 2.6 °C

Cc1cccc(-c2ccc(-c3cc4cnc(Nc5ccc(CCCO)cc5)nc4n(CCCCN)c3=O)c(Cl)c2)n1 [compound 30, 8-(4-Aminobutyl)-6-(2-chloro-4-(6-methylpyridin-2-yl)phenyl)-2-((4-(3-hydroxypropyl)phenyl)amino)pyrido[2,3-d]pyrimidin-7(8H)-one]
ΔTm 30 (PIM1): -0.4 °C
ΔTm 30 (DAPK1): -0.7 °C
ΔTm 30 (Erk3): 1.1 °C
ΔTm 30 (PIM3): -0.8 °C
ΔTm 30 (JNK3): 4.6 °C
ΔTm 30 (LOK): -0.4 °C
ΔTm 30 (BRPF1): -4.4 °C
ΔTm 30 (NEK2): 11.6 °C
ΔTm 30 (AurA): 8.6 °C
ΔTm 30 (PAK4): 9.0 °C

Cc1cccc(-c2ccc(-c3cc4cnc(Nc5ccc(O)cc5)nc4n(CCCCN)c3=O)c(Cl)c2)n1 [compound 31, 8-(4-Aminobutyl)-6-(2-chloro-4-(6-methylpyridin-2-yl)phenyl)-2-((4-hydroxyphenyl)amino) pyrido[2,3-d]pyrimidin-7(8H)-one]
ΔTm 31 (PIM1): 3.7 °C
ΔTm 31 (DAPK1): -0.6 °C
ΔTm 31 (Erk3): 1.2 °C
ΔTm 31 (PIM3): 4.5 °C
ΔTm 31 (JNK3): 4.7 °C
ΔTm 31 (LOK): -0.4 °C
ΔTm 31 (BRPF1): -3.4 °C
ΔTm 31 (NEK2): 10.8 °C
ΔTm 31 (AurA): 4.4 °C
ΔTm 31 (PAK4): 8.5 °C

Cc1cccc(-c2ccc(-c3cc4cnc(Nc5ccc(C)c(O)c5)nc4n(CCCCN)c3=O)c(Cl)c2)n1 [compound 32, 8-(4-Aminobutyl)-6-(2-chloro-4-(6-methylpyridin-2-yl)phenyl)-2-((3-hydroxy-4-methylphenyl)amino)pyrido[2,3-d]pyrimidin-7(8H)-one]
ΔTm 32 (PIM1): 1.2 °C
ΔTm 32 (DAPK1): -0.9 °C
ΔTm 32 (Erk3): 1.0 °C
ΔTm 32 (PIM3): 1.5 °C
ΔTm 32 (JNK3): 4.5 °C
ΔTm 32 (LOK): -0.2 °C
ΔTm 32 (BRPF1): -1.4 °C
ΔTm 32 (NEK2): 10.1 °C
ΔTm 32 (AurA): 5.9 °C
ΔTm 32 (PAK4): 7.9 °C
